Experiments:
male dd-strain mice = assay: Test for acute toxicity (minimum lethal dose, 7-day mortality); type: in vivo; details: mortality observed for 7 days; for Acute MLD ip: intraperitoneal
Experimental: Groups of 5 male dd-strain mice weighing 19 to 21 g were used. The present compounds were administered either orally (0.3 mg/g) or intraperitoneally (0.1 mg/g).
The MLD (minimum lethal dose) was determined by observing the mortality for 7 days after the administration.

Male Donryu-strain rats = assay: Test for antiulcer activity (restraint and water immersion stress ulcer, lesion index of glandular stomach); type: in vivo; details: Rattus norvegicus, water immersion at 23±1° C. for 7 hours, read-out: Ulcer-inhibition Rate; for inhibition in vivo at 30 mg/kg: po: 30 mg/kg; for inhibition in vivo at 100 mg/kg: po: 100 mg/kg
Experimental: Test for antiulcer activity
Male Donryu-strain rats weighing 190 to 210 g were starved for 17 hours prior to the test.
Immediately, after an oral administration of the present compounds (30 mg/kg or 100 mg/kg), the rats were immobilized in the stress cage devised by Takagi et al. [Jap. J. Pharmacol., 18, 9 (1968)]. The cage was then immersed vertically in a water bath at 23±1° C. for 7 hours to the height of xiphoid process.
Each rat was then killed with carbon dioxide gas and its stomach was removed. The lengths of the lesions developed on the glandular stomach were summed to give a lesion index for each rat.
Four or five rats were used for each group. The test compounds were dissolved in saline or dissolved or suspended in saline with a suitable amount of polyethylene glycol-400 added or not added. The ulcer-inhibitionrate of each compound was calculated from the following formula by comparing the lesion index of the test group with that of the control group [administered with only the solvent (saline with polyethylene glycol-400 added or not added)]. [formula]

Question: Which “Acute MLD ip” value (male dd-strain mice) does the source give for CCN(CC)CCNC1c2ccccc2OCc2ncccc21 (stereo not drawn) [Compound 1, 5-[2-(Diethylamino)ethyl]amino-5,11-dihydro[1]benzoxepino[3,4-b]pyridine] here?
Answer: Its value is > 100 mg/kg.

Question: And the “Acute MLD po” value (male dd-strain mice)?
Answer: The value was > 300 mg/kg.

Question: And the inhibition in vivo at 30 mg/kg (Male Donryu-strain rats)?
Answer: The inhibition in vivo at 30 mg/kg was 85%.

Question: What does the source list for CN(C)CCNC1c2ccccc2OCc2ncccc21 (stereo not drawn) [Compound 5, 5-[2-(Dimethylamino)ethyl]amino-5,11-dihydro[1]benzoxepino[3,4-b]pyridine]?
Answer: Acute MLD ip (male dd-strain mice): > 100 mg/kg; Acute MLD po (male dd-strain mice): > 300 mg/kg; inhibition in vivo at 30 mg/kg (Male Donryu-strain rats): 78%

Question: With CCN(CC)CCCNC1c2ccccc2OCc2ncccc21 (stereo not drawn) [Compound 7, 5-[3-(Diethylamino)propyl]amino-5,11-dihydro[1]benzoxepino[3,4-b]pyridine] as the compound, how does the “Acute MLD ip” value (male dd-strain mice) read?
Answer: Its value is > 100 mg/kg.

Question: And the “Acute MLD po” value (male dd-strain mice)?
Answer: The value was > 300 mg/kg.

Question: What about the inhibition in vivo at 30 mg/kg (Male Donryu-strain rats) of the same compound?
Answer: Its inhibition in vivo at 30 mg/kg is 55%.

Question: What does the source list for c1ccc2c(c1)OCc1ncccc1C2NCCN1CCCC1 (stereo not drawn) [Compound 13, 5-[2-(1-Pyrrolidinyl)ethyl]amino-5,11-dihydro[1]benzoxepino[3,4-b]pyridine]?
Answer: Acute MLD ip (male dd-strain mice): > 100 mg/kg; Acute MLD po (male dd-strain mice): > 300 mg/kg; inhibition in vivo at 30 mg/kg (Male Donryu-strain rats): 72%

Question: Which “Acute MLD ip” value (male dd-strain mice) does the source give for c1ccc2c(c1)OCc1ncccc1C2NCCN1CCOCC1 (stereo not drawn) [Compound 15, 5-[2-(Morpholino)ethyl]amino-5,11-dihydro[1]benzoxepino[3,4-b]pyridine] here?
Answer: The value was > 100 mg/kg.

Question: What about the “Acute MLD po” value (male dd-strain mice) of the same compound?
Answer: Its value is > 300 mg/kg.

Question: And the inhibition in vivo at 30 mg/kg (Male Donryu-strain rats)?
Answer: Its inhibition in vivo at 30 mg/kg is 73%.

Question: For CN1CCN(C2c3ccccc3OCc3ncccc32)CC1 (stereo not drawn) [Compound 20, 5-[1-(4-Methyl)piperazinyl]-5,11-dihydro[1]benzoxepino[3,4-b]pyridine], which “Acute MLD ip” value (male dd-strain mice) is on record?
Answer: Its value is > 100 mg/kg.

Question: And the “Acute MLD po” value (male dd-strain mice)?
Answer: The value was > 300 mg/kg.

Question: And the inhibition in vivo at 30 mg/kg (Male Donryu-strain rats)?
Answer: Its inhibition in vivo at 30 mg/kg is 67%.

Question: Which results are given for CC(C)N(CCNC1c2ccccc2OCc2ncccc21)C(C)C (stereo not drawn) [Compound 24, 5-[2-(Diisopropylamino)ethyl]amino-5,11-dihydro[1]benzoxepino[3,4-b]pyridine]?
Answer: Acute MLD ip (male dd-strain mice): > 100 mg/kg; Acute MLD po (male dd-strain mice): > 300 mg/kg; inhibition in vivo at 30 mg/kg (Male Donryu-strain rats): 88%

Question: CC(C)N(CC(=O)NC1c2ccccc2OCc2ncccc21)C(C)C (stereo not drawn) [Compound 27, 5,11-Dihydro-5-[(N,N--diisopropylamino)acetyl]amino[1]benzoxepino[3,4-b]pyridine] was tested. Which “Acute MLD ip” value (male dd-strain mice) did it give?
Answer: Its value is > 100 mg/kg.

Question: And the “Acute MLD po” value (male dd-strain mice)?
Answer: The value was > 300 mg/kg.

Question: And the inhibition in vivo at 100 mg/kg (Male Donryu-strain rats)?
Answer: The inhibition in vivo at 100 mg/kg was 79%.

Question: Which results are given for CCN(CC)CC(=O)NC1c2ccccc2OCc2ncccc21 (stereo not drawn) [Compound 28, 5-[(N,N--diethylamino)acetyl]amino-5,11-dihydro[1]benzoxepino[3,4-b]pyridine]?
Answer: Acute MLD ip (male dd-strain mice): > 100 mg/kg; Acute MLD po (male dd-strain mice): > 300 mg/kg; inhibition in vivo at 100 mg/kg (Male Donryu-strain rats): 98%

Question: For CN1CCN(CC(=O)NC2c3ccccc3OCc3ncccc32)CC1 (stereo not drawn) [Compound 29, 5,11-Dihydro-5-[(4-methyl-1-piperazinyl)acetyl]amino[1]benzoxepino[3,4-b]pyridine], which “Acute MLD ip” value (male dd-strain mice) is on record?
Answer: The value was > 100 mg/kg.

Question: What about the “Acute MLD po” value (male dd-strain mice) of the same compound?
Answer: Its value is > 300 mg/kg.

Question: What about the inhibition in vivo at 100 mg/kg (Male Donryu-strain rats) of the same compound?
Answer: Its inhibition in vivo at 100 mg/kg is 64%.

Question: For CNC(=O)N(C)C1c2ccccc2OCc2ncccc21 (stereo not drawn) [Compound 31, 1-(5,11-Dihydro[1]benzoxepino[3,4-b]pyridin-5-yl)1,3-dimethylurea], which “Acute MLD ip” value (male dd-strain mice) is on record?
Answer: The value was > 100 mg/kg.

Question: What about the “Acute MLD po” value (male dd-strain mice) of the same compound?
Answer: Its value is > 300 mg/kg.

Question: What about the inhibition in vivo at 100 mg/kg (Male Donryu-strain rats) of the same compound?
Answer: The inhibition in vivo at 100 mg/kg was 93%.

Question: What does the source list for CCNC(=O)N(CC)C1c2ccccc2OCc2ncccc21 (stereo not drawn) [Compound 36, 1-(5,11-Dihydro[1]benzoxepino[3,4-b]pyridin-5-yl)1,3-diethylurea]?
Answer: Acute MLD ip (male dd-strain mice): > 100 mg/kg; Acute MLD po (male dd-strain mice): > 300 mg/kg; inhibition in vivo at 100 mg/kg (Male Donryu-strain rats): 81%

Reference: patent publication US4547496A, “Antiulcer [1] benzepino[3,4-b]pyridine and compositions” (Kyowa Hakko Kogyo Co., Ltd., priority 1983, dated 1985)
